Source: ChEMBL document CHEMBL5150037, “Synthesis and in vitro biological evaluation of 3-ethyl-1,5-naphthyridin-2(1H)-one derivatives as potent PARP-1 selective inhibitors and PARP-1 DNA trappers” (Bioorg Med Chem Lett, 2022)

Columns and labels:
DLD-1 [1] = assay: Antiproliferative activity against human DLD-1 cells harbouring wild type BRCA assessed as inhibition of cell growth; type: functional, cell-based
[2] = biological target: T1, Poly [ADP-ribose] polymerase 1 (Homo sapiens, UniProt P09874); assay: Inhibition of PARP-1 (unknown origin) binding to DNA assessed as DNA trapping activity
[3] = biological target: T2, Poly [ADP-ribose] polymerase 2 (Homo sapiens, UniProt Q9UGN5); assay: Inhibition of PARP-2 (unknown origin)
[4] = biological target: T1, Poly [ADP-ribose] polymerase 1; assay: Inhibition of PARP-1 (unknown origin)
[5] = biological target: T2, Poly [ADP-ribose] polymerase 2; assay: Inhibition of PARP-2 (unknown origin) binding to DNA assessed as DNA trapping activity
DLD-1 [6] = assay: Antiproliferative activity against human DLD-1 cells harbouring BRCA-2 mutant assessed as inhibition of cell growth; type: functional, cell-based

T1 sequence (P09874 whole entry): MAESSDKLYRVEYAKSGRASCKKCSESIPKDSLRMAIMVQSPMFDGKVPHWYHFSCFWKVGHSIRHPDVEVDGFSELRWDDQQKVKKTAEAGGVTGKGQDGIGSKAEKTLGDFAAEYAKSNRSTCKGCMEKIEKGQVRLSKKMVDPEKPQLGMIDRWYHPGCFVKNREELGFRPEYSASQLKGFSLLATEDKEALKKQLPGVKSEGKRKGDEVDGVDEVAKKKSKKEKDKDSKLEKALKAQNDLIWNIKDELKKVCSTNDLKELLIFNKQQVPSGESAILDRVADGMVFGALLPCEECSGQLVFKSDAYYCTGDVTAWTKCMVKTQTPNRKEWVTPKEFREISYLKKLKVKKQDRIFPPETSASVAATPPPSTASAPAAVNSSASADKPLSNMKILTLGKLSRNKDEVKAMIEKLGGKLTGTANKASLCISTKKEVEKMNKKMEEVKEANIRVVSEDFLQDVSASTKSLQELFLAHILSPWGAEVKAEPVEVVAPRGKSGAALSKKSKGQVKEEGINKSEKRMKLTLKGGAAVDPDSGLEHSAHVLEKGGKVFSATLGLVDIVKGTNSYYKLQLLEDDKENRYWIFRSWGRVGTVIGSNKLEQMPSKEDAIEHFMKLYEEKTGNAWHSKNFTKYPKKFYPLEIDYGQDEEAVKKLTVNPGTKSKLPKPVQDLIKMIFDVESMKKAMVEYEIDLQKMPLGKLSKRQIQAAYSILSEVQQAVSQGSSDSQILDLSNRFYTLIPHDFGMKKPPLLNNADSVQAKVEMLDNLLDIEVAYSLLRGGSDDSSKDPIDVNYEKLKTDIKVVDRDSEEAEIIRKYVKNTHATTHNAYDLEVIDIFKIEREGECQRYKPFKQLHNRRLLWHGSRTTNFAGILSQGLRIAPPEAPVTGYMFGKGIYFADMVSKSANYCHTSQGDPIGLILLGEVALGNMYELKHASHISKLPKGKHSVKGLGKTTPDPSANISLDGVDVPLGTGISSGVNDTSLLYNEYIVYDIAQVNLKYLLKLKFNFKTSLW
T2 sequence (Q9UGN5 whole entry): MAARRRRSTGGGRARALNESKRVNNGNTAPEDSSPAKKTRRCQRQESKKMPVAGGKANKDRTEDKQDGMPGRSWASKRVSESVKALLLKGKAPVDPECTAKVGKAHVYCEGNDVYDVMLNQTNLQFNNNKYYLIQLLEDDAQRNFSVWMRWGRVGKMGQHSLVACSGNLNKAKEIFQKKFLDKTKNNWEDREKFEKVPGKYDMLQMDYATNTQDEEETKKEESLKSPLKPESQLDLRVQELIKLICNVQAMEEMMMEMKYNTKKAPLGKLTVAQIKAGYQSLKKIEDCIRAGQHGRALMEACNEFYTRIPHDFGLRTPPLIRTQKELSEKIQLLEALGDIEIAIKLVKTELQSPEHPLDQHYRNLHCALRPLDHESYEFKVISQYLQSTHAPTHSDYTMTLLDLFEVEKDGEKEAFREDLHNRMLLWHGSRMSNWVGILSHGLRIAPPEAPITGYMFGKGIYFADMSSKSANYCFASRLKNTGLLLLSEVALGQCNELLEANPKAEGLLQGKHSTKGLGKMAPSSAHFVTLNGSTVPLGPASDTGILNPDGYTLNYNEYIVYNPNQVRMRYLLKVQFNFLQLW

IC50 (DLD-1 [1])	IC50 [2]	IC50 [3]	IC50 [4]	IC50 [5]	IC50 (DLD-1 [6])	Compound
89200 nM	4.76 nM	192 nM	2.6 nM	12000 nM	25.6 nM	CCc1cc2ncc(CN3CC(Nc4ccc(C(=O)NC)nc4)C3)cc2[nH]c1=O
15600 nM	4.78 nM	–	0.41 nM	–	395 nM	CCc1cc2ncc(CN3CCN(c4ccc5cn[nH]c5n4)CC3)cc2[nH]c1=O
–	> 2500 nM	485 nM	348 nM	4040 nM	–	CCc1cc2ncc(CN3CCc4nc(C(=O)NC)ccc4C3)cc2[nH]c1=O
102000 nM	1.61 nM	68 nM	0.94 nM	9440 nM	43.8 nM	CCc1cc2ncc(CN3CCC(Nc4ccc(C(=O)NC)nc4)C3)cc2[nH]c1=O (stereo not drawn)
43800 nM	1.85 nM	133 nM	0.49 nM	3010 nM	4.82 nM	CCc1cc2ncc(CN3CC[C@@H](Nc4ccc(C(=O)NC)nc4)C3)cc2[nH]c1=O
–	> 2500 nM	450 nM	397 nM	14000 nM	–	CCc1cc2ncc(CN3CCN(c4ccc(C(C)(C)O)nc4)CC3)cc2[nH]c1=O
–	1570 nM	151 nM	14 nM	2980 nM	–	CCc1cc2ncc(CN3CCN(c4cc5cccc(C(=O)NC)c5cn4)CC3)cc2[nH]c1=O
–	231 nM	5.2 nM	0.9 nM	210 nM	–	CCc1cc2ncc(CN3CCN(c4cnc5cn[nH]c5c4)CC3)cc2[nH]c1=O
28100 nM	2.97 nM	9 nM	0.59 nM	839 nM	164 nM	CCc1cc2ncc(CN3CC4(C3)CN(c3ccc(C(=O)NC)nc3)C4)cc2[nH]c1=O
77100 nM	1460 nM	137 nM	33 nM	4170 nM	> 2500 nM	CCc1cc2ncc(CN3CC[C@H](Nc4ccc(C(=O)NC)nc4)C3)cc2[nH]c1=O
–	> 2500 nM	20 nM	75 nM	2040 nM	–	CCc1cc2ncc(CN3CCn4c(cnc4C(=O)NC)C3)cc2[nH]c1=O
–	727 nM	38 nM	5.4 nM	167 nM	–	CCc1cc2ncc(CN3CCN(c4cc5c(cn4)NC(=O)CC5)CC3)cc2[nH]c1=O
–	259 nM	40 nM	3.4 nM	3050 nM	–	CCc1cc2ncc(CN3CCC(Nc4ccc(C(=O)NC)nc4)CC3)cc2[nH]c1=O
–	64 nM	21 nM	1.3 nM	114 nM	–	CCc1cc2ncc(CN3CCN(c4ccc5cc[nH]c5n4)CC3)cc2[nH]c1=O
23300 nM	–	–	–	–	172 nM	O=C(c1cc(Cc2n[nH]c(=O)c3ccccc23)ccc1F)N1CCN(C(=O)C2CC2)CC1 [OLAPARIB]
12100 nM	–	–	–	–	0.915 nM	CCc1cc2ncc(CN3CCN(c4ccc(C(=O)NC)nc4)CC3)cc2[nH]c1=O [SARUPARIB]

Second part, the compound before the results:

Compound	IC50 (DLD-1 [1])	IC50 [2]	IC50 [3]	IC50 [4]	IC50 [5]	IC50 (DLD-1 [6])
CCc1cc2ncc(CN3C[C@@H]4C[C@H]3CN4c3ccc(C(=O)NC)nc3)cc2[nH]c1=O	–	> 2500 nM	340 nM	40 nM	37700 nM	–
CCc1cc2ncc(CN3CCN(c4ccc(C(=O)NC)c5nccn45)CC3)cc2[nH]c1=O	8700 nM	3.58 nM	982 nM	0.63 nM	1560 nM	161 nM
CCc1cc2ncc(CN3CC4CN(c5ccc(C(=O)NC)nc5)CC4C3)cc2[nH]c1=O (stereo not drawn)	2980 nM	8.14 nM	18 nM	0.34 nM	678 nM	46.8 nM
CCc1cc2ncc(CN3CC4(CCN(c5ccc(C(=O)NC)nc5)CC4)C3)cc2[nH]c1=O	–	158 nM	–	12 nM	–	–
CCc1cc2ncc(CN3CCN(c4ccc5[nH]ncc5n4)CC3)cc2[nH]c1=O	–	380 nM	23 nM	0.78 nM	1170 nM	–
CCc1cc2ncc(CN3CCN(c4ccc5nc(C(F)(F)F)[nH]c5n4)CC3)cc2[nH]c1=O	–	244 nM	60 nM	2.6 nM	1400 nM	–
CCc1cc2ncc(CN3CC4CC(C3)N4c3ccc(C(=O)NC)nc3)cc2[nH]c1=O	–	> 2500 nM	–	> 2500 nM	–	–
CCc1cc2ncc(CN3CCN(c4ccc(OC(F)F)nc4)CC3)cc2[nH]c1=O	15200 nM	4.51 nM	154 nM	1 nM	6300 nM	66 nM
CCc1cc2ncc(CN3CCN(c4ccc5oc(=O)[nH]c5c4)CC3)cc2[nH]c1=O	–	10.4 nM	87 nM	2 nM	994 nM	–
CCc1cc2ncc(CN3CC4CCC(C3)N4c3ccc(C(=O)NC)nc3)cc2[nH]c1=O	–	> 2500 nM	–	41 nM	–	–
CCc1cc2ncc(CN3CCc4cc(/C=C/C(=O)NC)ccc4C3)cc2[nH]c1=O	33000 nM	11.2 nM	41.5 nM	0.4 nM	1160 nM	10.8 nM
CCc1cc2ncc(CN3CCN(c4ccc(C(N)C(F)(F)F)nc4)CC3)cc2[nH]c1=O (stereo not drawn)	–	> 2500 nM	–	–	11800 nM	–
